Results from US9708397B2, “Treatment of vasculoproliferative conditions with Lrg1 antagonists” (UCL Business PLC, priority 2010, dated 2017).

Test system: Lrg1/TGFβ1 induced Smad5 phosphorylation
Assay: TGFβ-induced Smad5 phosphorylation in Lrg1 over-expressing GPNT endothelial cells
Assay type: cell-based, rat
Conditions: 5 ng/ml TGFβ, co-treatment
Text: We next established whether we could block endothelial Smad5 phosphorylation induced by TGFβ with either an anti-Lrg1 antibody or by peptide sequences derived from Lrg1. Peptides derived from the leucine-rich repeat regions of the Lrg1 sequence (L1-24 and L169-192 of Appendix 2 (SEQ ID NOS:3-4) or L94-117 and L262-285 of Appendix 3 (SEQ ID NOS:3-4)), which are believed to be involved in protein-protein interactions, and from the highly conserved leucine-rich C-terminal domain (L227-252 of Appendix 2 (SEQ ID NO:5) or L320-345 of Appendix 3 (SEQ ID NO:5)) were generated (Appendix 2). […] Treatment of control cells with 5 ng/ml TGFβ results in a significant increase in Smad5 phosphorylation.

Sequence	effect on Smad5 phosphorylation	effect on Smad5 phosphorylation (listed as Lrg1 blocking peptide derived from the C-terminus)
KMFSQNDTRCAGPEAVKGQTLLAVAK (listed as Homo sapiens) [L227-252]	dramatic inhibitory effect	inhibits
LDMLDLSNNSLASVPEGLWASLGQ (listed as Homo sapiens) [L169-192, Peptide from a leucine-rich repeat region of human Lrg1]	partial effect	
LQELHLSSNGLESLSPEFLRPVPQ (listed as Homo sapiens) [L1-24, Peptide from a leucine-rich repeat region of human Lrg1]	no effect	
